Marks after values point to notes of the source that are not given here. Each block holds one molecule with its values, some of them ahead of it.
Tests used:
Assay type in all cases: physicochemical
[1] = Rate of NO release upon photolysis compared with thermal decay of 1 and 20; details: for rate of photochemical release of NO versus thermal decomposition of 1 and 20: 10 seconds photolysis, Xenon arc lamp long-pass 324 nm filter, 10 mM phosphate and acetate buffers
Protocol: This example describes the general procedure for the determination of the rate of NO release from compounds 6 and 9 upon photolysis. Stock solutions of compounds 6 and 9 were prepared to be 100 μM in acetonitrile, and of these 15 μL aliquots were diluted into to […] of aqueous solutions at the appropriate pH (10 mM phosphate and acetate buffers). The probe was allowed to equilibrate in the sample solution before 10 seconds of photolysis using a Xenon arc lamp with a long-pass 324 nm filter. The rate of NO release was then monitored over the appropriate time span. For comparison, the thermal decay of both compounds 1 and 20 were recorded under the same conditions as those of the photochemical experiments.
As shown, this pH dependence follows the same pH dependence for the release from authentic samples of diazeniumdiolate 1.

[2] = Electrochemical quantification of NO / diazeniumdiolate released upon photolysis of O2-benzyl diazeniumdiolates
Protocol: Analysis of the above described organic products produced following photolysis of the compounds was studied in argon and oxygen-saturated 90%–99% aqueous acetonitrile. Quantification of NO released upon photolysis was performed electrochemically with an inNO Nitric Oxide Measuring System using an amiNO-2000 probe (Innovative Instruments Inc., Tampa, Fla.). The amiNO-2000 probe was calibrated using ascorbic acid/sodium nitrite before and after NO measurements were conducted. In order to differentiate NO production arising from diazeniumdiolate from non-diazeniumdiolate derived NO, the dependence of diazeniumdiolate decomposition rate on pH was utilized. […] Aqueous solutions at pH 11 of the compounds were irradiated and then analyzed for NO. Any NO detected under these conditions must arise from a non-diazeniumdiolate pathway. For all compounds examined the amount of NO formed from such a pathway was negligible. To liberate NO associated with the photoreleased diazeniumdiolate, solutions were acidified with 1.0 M H2SO4 to a pH of between 2–3. In each case, the yield of NO was determined from a series of measurements following photolysis to a range of percent conversions. […] NO yields determined from these experiment along with the observation that compound 1 dissociates to give 1.5 equivalents of NO were used to derive yields of photoreleased diazeniumdiolates from the compounds studied.
Since Path B is favored with the addition of strong π-donating meta substituents, the dihydroxybenzyl derivative of compound 3, n=0, Y=H, R1=R3=R5=H, R2=R4=OH (O^2-3,5-dihydroxybenzyl substituted diazeniumdiolate) was studied in further detail. Consistent with the expected large effect of oxyanionic meta substitution, when compound 3, n=0, Y=H, R1=R3=R5=H, R2=R4=OH is irradiated (Rayonet, 300 nm) in an aqueous solution of pH 11.2 (containing 1% acetonitrile) to 5–35% conversion, the amount of NO detected corresponded to a yield of photoreleased diazeniumdiolate compound 1 of approximately 92%. A comparison of selected results observed with O^2-substituted diazeniumdiolate derivatives having the backbone of compound 3 is shown in FIG. 1. After photolysis of the compound (t=0 sec) there is no nitric oxide production.

[3] = Quantum yields of photolysis of compounds 2 and 3 (actinometry)
[4] = Quantum yields of photolysis of compounds 6 and 9; details: ~20 μM in 90–95% aqueous acetonitrile, below 40% conversion
[5] = Diazeniumdiolate / NO released upon photolysis of compounds 6 and 9 (electrochemical NO probe); details: 0.498 μM, 100% conversion; for % NO: Xenon arc lamp with long-pass 324 nm filter, NO liberated by acidification; for % Diazeniumdiolate: pH 12.2, Xenon arc lamp with long-pass 324 nm filter, derived with 1.5 / 1.8 eq NO
Protocol: This example describes a general procedure for the determination of diazeniumdiolate released upon photolysis of compounds 6 and 9. The amiNO-700 probe was calibrated using ascorbic acid/sodium nitrite before and after NO measurements were recorded. Calibration curves were prepared in order to relate current (detected by the instrument) with concentration of NO. Stock solutions of compounds 6 and 9 were prepared to be 100 μM in acetonitrile, and of these 15 μL aliquots were diluted into to 3 mL of a pH 12.2 aqueous solution. The resulting 0.498 μM solutions were photolyzed with a Xenon arc lamp and a long-pass 324 nm filter for lengths of time appropriate to reach 100% conversion (6–7 minutes for most compounds at this concentration). Under these basic conditions any diazeniumdiolate generated photochemically is stable, and neither sodium-1-(N,N-diethylamino)-1-diazen-1-ium-1,2-diolate (compound 1) or sodium-1-(piperidin-1-yl)-diazen-1-ium-1,2-diolate (compound 20) absorbs at wavelengths above 324 nm. No NO was measured electrochemically at this pH, indicating there are no photochemical paths that lead directly to NO. The NO associated with the photochemically generated diazeniumdiolate was liberated by the addition of 10 μL of 1.0 M sulfuric acid (final solution pH's were typically 2–3. Using the calibration curve and the fact that the amount of NO released upon thermal decomposition of compounds 1 and 20 was calculated to be 1.5 and 1.8 eq. respectively, the absolute percentage of diazeniumdiolate generated upon photolysis of compounds 6 and 9 was determined. FIG. 2 depicts the amount of nitric oxide produced upon photolysis from a selection of 1-methylnaphthyl and 2-methylnaphthyl-O^2-substituted diazeniumdiolates having a backbone of compounds 6 and 9.
Compounds 6 and 9 are soluble in 99% aqueous acetonitrile up to 20 μM and are thermally stable indefinitely at pH 4–11, 25° C. at this concentration. Analysis of the products following photolysis (Rayonet, 300 or 350 nm, Xenon arc lamp with a long-pass 324 nm filter) of compounds 6 and 9 in both argon- and oxygen-saturated 99% aqueous acetonitrile is summarized in Table 2 below. Quantification of NO released upon photolysis was performed electrochemically with an inNO Nitric Oxide Measuring System using an ami-700 probe (Innovative Instruments Inc., Tampa, Fla.).

[6] = Absolute amount of NO released from thermal decomposition of diazeniumdiolates 1 and 20; details: 0.15–0.66 μM in aqueous solution pH 12.2, acidified with 1.0 M sulfuric acid
Protocol: Determination of the absolute amount of NO released from the thermal decomposition of sodium-1-(N,N-diethylamino)-diazen-1-ium-1,2-diolate compound 1, and sodium-1-(piperidin-1-yl)-diazen-1-ium-1,2-diolate compound 20.
Stock solutions of both compounds 1 and 20 were prepared to be 100 μM in aqueous solution at pH=12.2. A series of μL aliquots of the stock solution were diluted into 3 mL of aqueous solution at pH=12.2 resulting in an array of concentrations from 0.15–0.66 μM. The probe was allowed to equilibrate in the sample solutions before the addition of 10 μL of 1.0 M sulfuric acid. The final concentration of NO in solution after complete decomposition was determined by the calibration curve, and a linear plot of NO released vs. initial concentration was obtained. By this method it was determined that compounds 1 and 20 release 1.5 and 1.8 eq. of NO respectively.

[7] = Lifespan of diazeniumdiolate 1 as a function of pH; details: room temperature
[8] = H2O/CH3CN 99/1, photolysis 300 nm, based on percent reactant converted, NO measured and 1.5 eq NO per diazeniumdiolate 1, estimated error ±5%
[9] = solvent H2O/CH3CN 0/100, photolysis 254 nm
[10] = solvent H2O/CH3CN 0/100, photolysis 300 nm
[11] = solvent H2O/CH3CN 99/1, photolysis 254 nm
[12] = solvent H2O/CH3CN 99/1, photolysis 300 nm

SMILES: COc1cc2ccccc2cc1/C=C/CON=[N+]([O-])N1CCCCC1
rate of photochemical release of NO versus thermal decomposition of 1 and 20 [1]: consistent with the known thermal decays

SMILES: CCN(CC)[N+]([O-])=NOCc1cccc(OC)c1 [3 (R2 = MeO, R4 = H), O^2-(3-methoxybenzyl)-1-(N,N-diethylamino)-diazen-1-ium-1,2-diolate]
% Diazeniumdiolate [2, 8]: 6%

Quantum Yield [3, 9]: 0.60 | Quantum Yield [3, 10]: 0.17 | Quantum Yield [3, 11]: 0.25 | Quantum Yield [3, 12]: 0.04
SMILES: CCN(CC)[N+]([O-])=NOCc1cccc(N(C)C)c1 [3 (R2 = NMe2, R4 = H), O^2-(3-dimethylaminobenzyl)-1-(N,N-diethylamino)-diazen-1-ium-1,2-diolate]
% Diazeniumdiolate [2, 8]: 35%

Quantum Yield [3, 9]: 0.35 | Quantum Yield [3, 11]: 0.17
SMILES: CCN(CC)[N+]([O-])=NOCc1cc(OC)cc(OC)c1 [3 (R2 = R4 = MeO), O^2-(3,5-dimethoxybenzyl)-1-(N,N-diethylamino)-diazen-1-ium-1,2-diolate]
% Diazeniumdiolate [2, 8]: 10%

Quantum Yield [3, 9]: 0.53 | Quantum Yield [3, 10]: 0.18 | Quantum Yield [3, 11]: 0.26 | Quantum Yield [3, 12]: 0.05
SMILES: CCN(CC)[N+]([O-])=NOCc1cc(N(C)C)cc(N(C)C)c1 [3 (R2 = R4 = NMe2), O^2-(3,5-bis-dimethylaminobenzyl)-1-(N,N-diethylamino)-diazen-1-ium-1,2-diolate]
% Diazeniumdiolate [2, 8]: 47%

Quantum Yield [3, 12]: 0.87
SMILES: CCN(CC)[N+]([O-])=NOCc1cc(O)cc(O)c1 [3 (R2 = R4 = OH), O^2-(3,5-dihydroxybenzyl)-1-(N,N-diethylamino)-diazen-1-ium-1,2-diolate]
% Diazeniumdiolate ([2]; H2O/CH3CN 99/1, photolysis 300 nm at pH 11.2, 5–35% conversion): 92^d %

SMILES: CCN(CC)[N+]([O-])=NOCc1cccc2ccccc12 [6 (n = 0, Y = R1–R7 = H), O^2-(1-naphthylmethyl)-1-(N,N-diethylamino)-1-diazen-1-ium-1,2-diolate]
Quantum Yield ([4]; 300 nm (rayonet reactor)): 0.01^a | % NO [5]: 1.5% | % Diazeniumdiolate [5]: 1%

SMILES: CCN(CC)[N+]([O-])=NOC/C=C/c1cccc2ccccc12 [6 (n = 1, Y = R1–R7 = H)]
Quantum Yield ([4]; 300 nm (rayonet reactor)): 0.12^a | % NO [5]: 37.5% | % Diazeniumdiolate [5]: 25%

SMILES: CCN(CC)[N+]([O-])=NOCc1cc2ccccc2cc1OC [9 (n = 0, Y = R1, R3–R7 = H, R2 = OMe), O^2-(3-methoxy-2-naphthylmethyl)-1-(N,N-diethylamino)-diazen-1-ium-1,2-diolate]
Quantum Yield ([4]; 300 nm (rayonet reactor)): 0.02^a | % NO [5]: 30% | % Diazeniumdiolate [5]: 20% | % Diazeniumdiolate ([5]; listed as 9 (where n=0, Y=R1, R3–R7=H, R2=OMe, X=diethylamino)): 50%

SMILES: CCN(CC)/[N+]([O-])=N/[O-].[Na+] [Compound 1, sodium-1-(N,N-diethylamino)-diazen-1-ium-1,2-diolate]
rate of release of nitric oxide from photochemically generated diazeniumdiolate ([1]; FIG. 5, varied pH): pH dependent | NO released upon thermal decomposition [6]: 1.5 eq. | lifespan ([7]; pH 3): several seconds | lifespan ([7]; pH 11): several hours

SMILES: [Na+].[O-]/N=[N+](\[O-])N1CCCCC1 [Compound 20, sodium-1-(piperidin-1-yl)-diazen-1-ium-1,2-diolate]
NO released upon thermal decomposition [6]: 1.8 eq.

SMILES: CCN(CC)[N+]([O-])=NOC/C=C/c1cc2ccccc2cc1OC [O^2-(3-(3-methoxy-2-naphthyl)-E-2-propenyl)-1-(N,N-diethylamino)-diazen-1-ium-1,2-diolate]
% Diazeniumdiolate [5]: 50% | rate of photochemical release of NO versus thermal decomposition of 1 and 20 [1]: consistent with the known thermal decays

SMILES: CCN(CC)[N+]([O-])=NOC/C=C/c1cccc2c(OC)ccc(OC)c12 [O^2-(3-(5,8-dimethoxy-1-naphthyl)-E-2-propenyl)-1-(N,N-diethylamino)-diazenen-1-ium-1,2-diolate]
Quantum Yield ([4]; 355 nm (ND:YAG laser)): 0.66^b | % NO [5]: 143% | % Diazeniumdiolate [5]: 95%

SMILES: CCN(CC)[N+]([O-])=NOCc1cccc2c(OC)ccc(OC)c12 [O^2-(5,8-dimethoxy-1-naphthylmethyl)-1-(N,N-diethylamino)-diazen-1-ium-1,2-diolate]
Quantum Yield ([4]; 355 nm (ND:YAG laser)): 0.12^b | % NO [5]: 60% | % Diazeniumdiolate [5]: 40%

SMILES: CCN(CC)[N+]([O-])=NOCc1ccc2c(OC)ccc(OC)c2c1 [O^2-(5,8-dimethoxy-2-naphthylmethyl)-1-(N,N-diethylamino)-diazen-1-ium-1,2-diolate]
Quantum Yield ([4]; 355 nm (ND:YAG laser)): 0.05^b | % NO [5]: 51% | % Diazeniumdiolate [5]: 34%
